Measurements as given in patent US8338039B2, “Fuel cell” (Sony Corporation, priority 2009, dated 2012).

What was measured:
[1] = Dissolution of additive in the fuel solution; format: physicochemical; details: fuel solution containing 1% ethanol; 1% DEET
Experimental: The fuel solution is a pH buffer solution composed of 2.0 M imidazole/H2SO4, 0.4 M glucose, and ethanol, pH 7.0. […] The plant essential oil is added to the fuel solution and suspended therein by stirring immediately before current measurement.

[2] = test system: anode having the enzyme catalyst (glucose dehydrogenase, diaphorase); experiment: Current generated by the enzyme-catalyst anode of the fuel cell with additive in the fuel solution; format: biochemical
Experimental: Tests were conducted under the following conditions to investigate how the plant essential oil added to the fuel solution affects the fuel cell performance. The plant essential oils used for the test are nutmeg oil, lemongrass oil, and palmarosa oil. The concentration of each plant essential oil in the fuel solution is 1%. The control substance is N,N-diethyl-m-toluamide (DEET), which is an active ingredient used for most insect repellent sprays. The concentration of DEET in the fuel solution is 1%. Incidentally, the concentration of DEET in the formulation is required to be less than 12% according to the Japanese regulation. The fuel solution is a pH buffer solution composed of 2.0 M imidazole/H2SO4, 0.4 M glucose, and ethanol, pH 7.0. […] The plant essential oil is added to the fuel solution and suspended therein by stirring immediately before current measurement. The electrode is one which is made of carbon fiber (1 mm thick). The electrode is coated with an immobilizing agent which is composed of the following ingredients. A mixture of 1.0 PLL and 0.0625 glutaraldehyde, 75.2 μL A solution of glucose dehydrogenase (150 mg/mL), 12.4 μL A solution of diaphorase (150 mg/mL), 1.6 μL A solution of NADH (40.96 mg/mL), 4 μL A solution of AQ2S (60 mM), 37.4 μL An enzyme produced by Amano Enzyme Co., Ltd. is immobilized on the above-mentioned immobilizing agent. […]

Compound: CCN(CC)C(=O)c1cccc(C)c1 [DEET, N,N-diethyl-m-toluamide]
- solubility in the fuel solution [1]: dissolves 1% DEET completely
- current value produced by the enzymatic catalyst at the anode, compared with fuel solution not incorporated with the additive ([2]; 1% additive in fuel solution (2.0 M imidazole/H2SO4, 0.4 M glucose, ethanol, pH 7.0), carbon fiber anode): lower current value
- effect on the fuel cell performance ([2]; added to the fuel solution at 1%): deteriorates the fuel cell performance
